Results reported in ChEMBL document CHEMBL3120081, “Imidazopyridazine hepatitis C virus polymerase inhibitors. Structure-activity relationship studies and the discovery of a novel, traceless prodrug mechanism” (J Med Chem, 2014).
Values after ≈ are worked out from the molar mass of the structure shown.

Tests used:
[1] = tested on: Hepatitis C virus; assay: Antiviral activity against Hepatitis C virus genotype 1b infected in human HuH7 cells after 48 hrs by luciferase reporter gene assay; format: functional, organism-based, Hepacivirus hominis; settings: Huh-7, 48 h
[2] = tested on: Hepatitis C virus; assay: Antiviral activity against Hepatitis C virus genotype 1a infected in human HuH7 cells after 48 hrs by luciferase reporter gene assay; format: functional, organism-based, Hepacivirus hominis; settings: subtype 1a, Huh-7, 48 h
[3] = Oral bioavailability in beagle dog at 5 mg/kg by LC/MS/MS analysis; format: ADME, organism-based, Canis lupus familiaris; settings: in vivo
[4] = Stability of the compound in water assessed as 5-((2-(2,3-Difluorophenyl)-5H-imidazo[4,5-d]pyridazin-5-yl)-methyl)-3-(4-propoxy-2-(trifluoromethyl)phenyl)isoxazole level at 1 uM at pH 7 up to 60 mins by LC/MS/MS analysis; format: physicochemical; settings: buffer, pH 7, 1 h
[5] = Solubility of the compound in phosphate buffered saline at pH 7.4 after 1 hr by chemiluminescence nitrogen detection assay; format: physicochemical
[6] = Oral bioavailability in CD rat at 5 mg/kg by LC/MS/MS analysis; format: ADME, organism-based; settings: in vivo
[7] = tested on: Hepatocyte; assay: Stability in rat hepatocytes assessed as 5-((2-(2,3-Difluorophenyl)-5H-imidazo[4,5-d]pyridazin-5-yl)-methyl)-3-(4-propoxy-2-(trifluoromethyl)phenyl)isoxazole level at 0.5 uM by LC/MS/MS analysis; format: ADME, cell-based
[8] = Stability of the compound in blood (unknown origin) assessed as 5-((2-(2,3-Difluorophenyl)-5H-imidazo[4,5-d]pyridazin-5-yl)-methyl)-3-(4-propoxy-2-(trifluoromethyl)phenyl)isoxazole level at 1 uM up to 60 mins by LC/MS/MS analysis; format: ADME, tissue-based; settings: 1 h
[9] = tested on: Hepatocyte; assay: Half life in rat hepatocytes assessed as 5-((2-(2,3-Difluorophenyl)-5H-imidazo[4,5-d]pyridazin-5-yl)-methyl)-3-(4-propoxy-2-(trifluoromethyl)phenyl)isoxazole level; format: ADME, cell-based
[10] = Stability in rat microsomes assessed as 5-((2-(2,3-Difluorophenyl)-5H-imidazo[4,5-d]pyridazin-5-yl)-methyl)-3-(4-propoxy-2-(trifluoromethyl)phenyl)isoxazole level at 0.5 uM by LC/MS/MS analysis; format: ADME, Microsome
[11] = Half life in blood (unknown origin) assessed as 5-((2-(2,3-Difluorophenyl)-5H-imidazo[4,5-d]pyridazin-5-yl)-methyl)-3-(4-propoxy-2-(trifluoromethyl)phenyl)isoxazole level; format: ADME, tissue-based
[12] = AUC in CD rat at 1000 mg/kg by LC/MS/MS analysis; format: ADME, organism-based; parameters: dose 1000 mg/kg; settings: plasma
[13] = Stability of the compound in water assessed as 5-((2-(2,3-Difluorophenyl)-5H-imidazo[4,5-d]pyridazin-5-yl)-methyl)-3-(4-propoxy-2-(trifluoromethyl)phenyl)isoxazole level at 1 uM at pH 2 up to 60 mins by LC/MS/MS analysis; format: physicochemical; settings: buffer, pH 2, 1 h
[14] = tested on: Rattus norvegicus; assay: Toxicity in rat at 10 to 1000 mg/kg/day, po qd for 7 days; format: organism-based; parameters: route oral; settings: in vivo, 168 h
[15] = tested on: Canis familiaris; assay: Hepatotoxicity in beagle dog at 10 to 600 mg/kg/day, po qd for 7 days; format: toxicity, organism-based, Canis lupus familiaris; parameters: route oral; settings: in vivo, 168 h
[16] = Cmax in CD rat at 30 mg/kg by LC/MS/MS analysis; format: ADME, organism-based; parameters: dose 30 mg/kg; settings: in vivo
[17] = Cytotoxicity against human HepG2 cells after 48 hrs by WST assay; format: cell-based
[18] = Inhibition of Hepatitis C virus genotype 1b NS3; parameters: species or system Hepatitis C virus subtype 1b
[19] = AUC in CD rat at 30 mg/kg by LC/MS/MS analysis; format: ADME, organism-based; parameters: dose 30 mg/kg; settings: plasma
[20] = AUC in CD rat at 10 mg/kg by LC/MS/MS analysis; format: ADME, organism-based; parameters: dose 10 mg/kg; settings: plasma
[21] = Plasma protein binding in human at 5 uM after 4 hrs by rapid equilibrium dialysis technique; format: ADME, cell-free; settings: read-out: PPB (converted)
[22] = Half life in beagle dog at 1 mg/kg, iv by LC/MS/MS analysis; format: ADME, organism-based, Canis lupus familiaris; parameters: dose 1 mg/kg, route intravenous; settings: in vivo
[23] = Cytotoxicity against human MT4 cells after 48 hrs by WST assay; format: cell-based
[24] = biological target: T1, Voltage-gated inwardly rectifying potassium channel KCNH2 (Homo sapiens, UniProt Q12809); assay: Inhibition of human ERG expressed in HEK293 cells; format: cell-based
[25] = Cmax in CD rat at 10 mg/kg by LC/MS/MS analysis; format: ADME, organism-based; parameters: dose 10 mg/kg; settings: in vivo
[26] = Oral bioavailability in CD rat at 1 mg/kg by LC/MS/MS analysis; format: ADME, organism-based; settings: in vivo
[27] = AUC in beagle dog at 1 mg/kg, po by LC/MS/MS analysis; format: ADME, organism-based, Canis lupus familiaris; parameters: dose 1 mg/kg, route oral; settings: plasma
[28] = Intrinsic clearance in beagle dog microsomes; format: ADME, Canis lupus familiaris, Microsome
[29] = Cytotoxicity against human HuH7 cells after 48 hrs by WST assay; format: cell-based, Huh-7
[30] = Clearance in beagle dog at 1 mg/kg, iv by LC/MS/MS analysis; format: ADME, organism-based, Canis lupus familiaris; parameters: dose 1 mg/kg, route intravenous; settings: in vivo
[31] = Clearance in CD rat at 0.5 mg/kg, iv by LC/MS/MS analysis; format: ADME, organism-based; parameters: dose 0.5 mg/kg, route intravenous; settings: in vivo
[32] = Intrinsic clearance in CD rat microsomes; format: ADME, Microsome
[33] = Oral bioavailability in beagle dog at 1 mg/kg by LC/MS/MS analysis; format: ADME, organism-based, Canis lupus familiaris; settings: in vivo
[34] = Aqueous solubility of the compound at pH 6.8; format: physicochemical
[35] = AUC in CD rat at 100 mg/kg by LC/MS/MS analysis; format: ADME, organism-based; parameters: dose 100 mg/kg; settings: plasma
[36] = AUC in CD rat at 1 mg/kg, po by LC/MS/MS analysis; format: ADME, organism-based; parameters: dose 1 mg/kg, route oral; settings: plasma
[37] = Volume of distribution in CD rat at 0.5 mg/kg, iv by LC/MS/MS analysis; format: ADME, organism-based; parameters: dose 0.5 mg/kg, route intravenous; settings: in vivo
[38] = Inhibition of Hepatitis C virus genotype 1b NS5B; parameters: species or system Hepatitis C virus subtype 1b
[39] = Volume of distribution in beagle dog at 1 mg/kg, iv by LC/MS/MS analysis; format: ADME, organism-based, Canis lupus familiaris; parameters: dose 1 mg/kg, route intravenous; settings: in vivo
[40] = Cmax in CD rat at 100 mg/kg by LC/MS/MS analysis; format: ADME, organism-based; parameters: dose 100 mg/kg; settings: in vivo
[41] = AUC in CD rat at 300 mg/kg by LC/MS/MS analysis; format: ADME, organism-based; parameters: dose 300 mg/kg; settings: plasma
[42] = Cmax in CD rat at 300 mg/kg by LC/MS/MS analysis; format: ADME, organism-based; parameters: dose 300 mg/kg; settings: in vivo
[43] = Half life in CD rat at 0.5 mg/kg, iv by LC/MS/MS analysis; format: ADME, organism-based; parameters: dose 0.5 mg/kg, route intravenous; settings: in vivo
[44] = biological target: T1, Voltage-gated inwardly rectifying potassium channel KCNH2; assay: Inhibition of human ERG expressed in CHO cells

T1 sequence (Q12809 whole entry): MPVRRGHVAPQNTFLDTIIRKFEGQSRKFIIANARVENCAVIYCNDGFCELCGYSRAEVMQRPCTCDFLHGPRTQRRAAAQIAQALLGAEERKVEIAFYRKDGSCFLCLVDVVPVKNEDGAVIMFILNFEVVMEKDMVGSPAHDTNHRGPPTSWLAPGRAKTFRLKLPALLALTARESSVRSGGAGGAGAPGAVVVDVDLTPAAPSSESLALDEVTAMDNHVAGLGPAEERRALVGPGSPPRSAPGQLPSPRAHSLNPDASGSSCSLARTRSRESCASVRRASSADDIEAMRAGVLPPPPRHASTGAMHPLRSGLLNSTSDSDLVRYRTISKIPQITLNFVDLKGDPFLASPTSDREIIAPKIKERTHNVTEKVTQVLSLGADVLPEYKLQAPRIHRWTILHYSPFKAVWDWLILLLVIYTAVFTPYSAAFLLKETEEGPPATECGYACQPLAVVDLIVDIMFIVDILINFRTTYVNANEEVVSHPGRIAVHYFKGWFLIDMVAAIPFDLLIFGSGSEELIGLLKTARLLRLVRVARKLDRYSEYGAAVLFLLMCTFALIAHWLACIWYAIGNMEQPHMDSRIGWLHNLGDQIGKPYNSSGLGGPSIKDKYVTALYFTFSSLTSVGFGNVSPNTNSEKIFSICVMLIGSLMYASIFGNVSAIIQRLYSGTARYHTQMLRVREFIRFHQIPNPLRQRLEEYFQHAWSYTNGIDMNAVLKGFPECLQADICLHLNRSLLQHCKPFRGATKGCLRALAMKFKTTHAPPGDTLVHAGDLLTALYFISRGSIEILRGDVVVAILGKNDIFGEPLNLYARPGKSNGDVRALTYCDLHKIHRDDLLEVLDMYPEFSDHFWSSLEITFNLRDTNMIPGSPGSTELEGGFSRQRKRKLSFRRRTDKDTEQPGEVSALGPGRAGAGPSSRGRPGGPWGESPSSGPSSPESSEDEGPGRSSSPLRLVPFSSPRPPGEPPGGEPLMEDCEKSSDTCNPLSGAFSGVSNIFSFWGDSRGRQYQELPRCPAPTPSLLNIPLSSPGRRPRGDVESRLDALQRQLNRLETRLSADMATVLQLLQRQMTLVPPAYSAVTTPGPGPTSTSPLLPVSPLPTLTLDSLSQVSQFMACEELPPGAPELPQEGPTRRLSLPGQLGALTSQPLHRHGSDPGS

In the case of `Fc1cccc(-c2nc3cnn(Cc4cc(-c5ccc(C(F)(F)F)cc5C(F)(F)F)no4)cc-3n2)c1`, the EC50 [1] is reported as > 50000 nM.

Molecule `CCCOc1ccc(-c2cnc(Cn3cc4nc(-c5cccc(F)c5F)nc-4cn3)nc2)c(C(F)(F)F)c1` has an EC50 [1] of 240 nM and an EC50 [2] of 300 nM.

`CC(C)(c1cc(-c2ccc(C(F)(F)F)cc2C(F)(F)F)no1)n1cc2nc(-c3cccc(F)c3F)nc-2cn1` gave an EC50 [1] of 1500 nM and an EC50 [2] of 5400 nM.

For `CCCOc1ccc(-c2cc(C(C(=O)OC)n3cc4nc(-c5cccc(F)c5F)nc-4cn3)on2)c(C(F)(F)F)c1` (stereo not given), the bioavailability [3] was 51%, the Stability [4] was “Stable” and the solubility kinetic at 1 h [5] was 17 µM (≈ 9.75 µg/mL). For the same molecule, the bioavailability [6] was 80%, the Stability [7] was “Stable” and the Stability [8] was “Stable”. It also gave an EC50 [1] of 3 nM, a t1/2 [9] of 15 min and an EC50 [2] of 21 nM. For the same molecule, the Stability [10] was “Stable”, the t1/2 [11] was 15 min and the AUC [12] was 118 µg·h/mL. For the same molecule, the Stability [13] was “Stable”.

`CCCOc1ccc(-c2cc(C(C(=O)OCCCO)n3cc4nc(-c5cccc(F)c5F)nc-4cn3)on2)c(C(F)(F)F)c1` (stereo not given) gave a bioavailability [3] of 63%, a solubility kinetic at 1 h [5] of 14 µM (≈ 8.65 µg/mL) and a bioavailability [6] of 91%. For the same molecule, the EC50 [1] was 6 nM, the EC50 [2] was 23 nM and the AUC [12] was 64 µg·h/mL.

In the case of `CCCOc1ccc(-c2cc(C(C(=O)OCCOCCO)n3cc4nc(-c5cccc(F)c5F)nc-4cn3)on2)c(C(F)(F)F)c1` (stereo not given), the bioavailability [3] is reported as 91%, the solubility kinetic at 1 h [5] is reported as 24 µM (≈ 15.5 µg/mL) and the Activity [14] is reported as “Non-toxic”. The bioavailability [6] was 98%, the EC50 [1] was 3 nM and the EC50 [2] was 11 nM. For the same molecule, the AUC [12] was 325 µg·h/mL and the Activity [15] was “Toxic”.

Work on `Fc1ccccc1-c1nc2cnn(Cc3cc(-c4ccc(Cl)cc4)no3)cc-2n1` yielded an EC50 [1] of 170 nM.

For `Fc1cccc(-c2nc3cnn(Cc4cc(-c5ccc(C(F)(F)F)cc5C(F)(F)F)no4)cc-3n2)c1F`, the Cmax [16] was 7200 ng/mL, the CC50 at 48 h [17] was > 50 µM and the IC50 [18] was > 50 µM. The AUC [19] was 98000 ng·h/mL, the AUC [20] was 25000 ng·h/mL and the fraction unbound at 4 h, 5 µM [21] was 0.002. The half-life [22] was 414 min, the CC50 at 48 h [23] was > 50 µM and the IC50 [24] was > 50.1 µM. It also gave a Cmax [25] of 1900 ng/mL, a bioavailability [26] of 109% and an AUC [27] of 2000 ng·h/mL. For the same molecule, the CLint scaled [28] was < 10 mL/min/kg, the CC50 at 48 h [29] was > 50 µM and the clearance [30] was 2.7 mL/min/kg. The clearance [31] was 3 mL/min/kg, the CLint scaled [32] was < 10 mL/min/kg and the bioavailability [33] was 18.8%. The solubility [34] was < 0.01 µg/mL, the EC50 [1] was 16 nM and the AUC [35] was 102 µg·h/mL. For the same molecule, the AUC [36] was 6300 ng·h/mL, the EC50 [2] was 120 nM and the Vd [37] was 0.57 L/kg. For the same molecule, the IC50 [38] was > 50 µM, the Vd [39] was 0.83 L/kg and the Cmax [40] was 7400 ng/mL. For the same molecule, the AUC [41] was 31000 ng·h/mL, the Cmax [42] was 2900 ng/mL and the half-life [43] was 186 min.

In the case of `Fc1ccccc1-c1nc2ccn(Cc3cc(-c4ccc(C(F)(F)F)cc4C(F)(F)F)no3)cc-2n1`, the IC50 [44] is reported as 794 nM.

With `Fc1cccc(-c2nc3cnn(Cc4cc(-c5ccc(C(F)(F)F)nc5)no4)cc-3n2)c1F` the EC50 [1] was 300 nM.

For `CCCOc1cnc(-c2cc(Cn3cc4nc(-c5cccc(F)c5F)nc-4cn3)on2)cn1`, the EC50 [1] was 220 nM and the EC50 [2] was 1400 nM.

With `COc1ncc(-c2cc(Cn3cc4nc(-c5cccc(F)c5F)nc-4cn3)on2)cn1` the EC50 [1] was > 50000 nM and the EC50 [2] was > 50000 nM.

Work on `Fc1cccc(-c2nc3cnn(Cc4cc(-c5ccc(C(F)(F)F)cc5)no4)cc-3n2)c1F` yielded an EC50 [1] of 24 nM and an EC50 [2] of 70 nM.

Molecule `CCCCc1ccc(-c2cc(Cn3cc4nc(-c5cccc(F)c5F)nc-4cn3)on2)cc1` has an EC50 [1] of 10 nM and an EC50 [2] of 80 nM.

`Cc1ccc(-c2cc(Cn3cc4nc(-c5cccc(F)c5F)nc-4cn3)on2)cc1` showed an EC50 [1] of 23 nM and an EC50 [2] of 110 nM.
